Here are results for four molecules from ChEMBL document CHEMBL1132729.

The target in test [1] is T1, Lipoprotein lipase (Bos taurus) (UniProt P11151).
T1 sequence (whole entry): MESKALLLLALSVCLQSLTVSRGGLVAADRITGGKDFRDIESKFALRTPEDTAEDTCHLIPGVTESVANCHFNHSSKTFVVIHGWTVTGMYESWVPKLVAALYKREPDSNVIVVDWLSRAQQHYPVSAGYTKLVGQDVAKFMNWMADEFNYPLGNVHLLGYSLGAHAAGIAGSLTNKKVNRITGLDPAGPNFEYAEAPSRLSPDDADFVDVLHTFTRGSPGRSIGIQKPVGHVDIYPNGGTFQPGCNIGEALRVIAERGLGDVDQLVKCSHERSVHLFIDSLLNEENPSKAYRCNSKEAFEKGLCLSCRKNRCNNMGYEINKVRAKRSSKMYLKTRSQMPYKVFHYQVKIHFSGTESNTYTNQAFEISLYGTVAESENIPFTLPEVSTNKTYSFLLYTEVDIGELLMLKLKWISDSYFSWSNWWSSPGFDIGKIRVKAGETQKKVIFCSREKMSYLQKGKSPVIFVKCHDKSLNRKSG
In words: Percent inhibition of compound against Lipoprotein lipase(LPL) was evaluated; No significant inhibition.

The target in test [2] is T1, Lipoprotein lipase (Bos taurus). In words: Percent inhibition of compound against Lipoprotein lipase(LPL) at 10 uM was evaluated.
Test [3] has the same target. Nature of the test: Percent inhibition of compound against Lipoprotein lipase(LPL) at 3h was evaluated. As to conditions: concentration not given here.

The structures appear in SMILES notation. The source made the active and inactive calls. The rule behind the calls is not given here.

Consider `CCCCCCS(=O)(=O)Oc1ccc([N+](=O)[O-])cc1`, for which the inhibition (as a rule, the percentage by which the read-out fell short of the control) in test [1] was “No inhibition”. Turning to `CCCCCCCCCCCCCCCCS(=O)(=O)F`, the inhibition in test [2] was determined as 50%; in test [3], 90%. Regarding `CCCCCCS(=O)(=O)ON1C(=O)CCC1=O`, the inhibition result in test [1] was “No inhibition”. On the same count and under the same terms, as for `CCCCCCCCCCCCS(=O)(=O)F`, the entry is “inactive”.
